Data published in US20080318987A1, “METHODS FOR MODULATING BONE FORMATION AND MINERALIZATION” (priority 2007, published 2008).

Tests used:
[1] = biological target: T1, WWP1 (Mus musculus, UniProt Q8BZZ3); assay: OSE2 (osteocalcin) luciferase reporter assay, primary screen; assay type: cell-based, murine
T1 construct: The LKO.1 lentiviral vectors expressing RNAi against murine WWP1; endogenous in cells; host or cells: C3H10T1/2 (murine mesenchymal stem cell line)
Method: A cell-based reporter assay was modified for use as a primary screen. It is based on the inhibition by WWPI of Runx2 activation of a target promoter sequence from the osteocalcin gene. The murine mesenchymal stem cell line, C3H10T1/2 was maintained in DMEM+10% FBS. Cells were seeded overnight in a 12-wlel dish at 8×10^4 cells/well and transfected with the multimerized osteocalcin (OSE) luciferase (6×OSE2) reporter gene plasmid and combinations of expression constructs, as indicated, by Effectene (Qiagen). Total amounts of transfected DNA were kept constant by supplementing with control empty expression vector plasmids. All cells were cotransfected with pRL-TK (Promega) to control for transfection efficience. Forty-eight hours after transfection, cells were harvested and lysed in 1×Passive Lysis Buffer (Promega) and luciferase assays performed using the Dual-Luciferase Reporter Assay System (Promega).
Runx2 transactivation function in luciferase reporter assays was enhanced in WWPli cells. The LKO.1 lentiviral vectors expressing RNAi against murine WWP1, and GFP were cotransfected along with D8.9 and VSV-G plasmids into […] cells utilizing Effectene (Qiagen).

[2] = system: primary human mesenchymal stem cells (MSCs); assay: Human osteoblast differentiation in vitro (mineralization); assay type: cell-based; conditions: compound included in the MSC osteoblast differentiation culture system
Method: This cell-based assay uses a 96-well format in which primary human mesenchymal stem cells (MSCs) are differentiated into osteoblasts following an established protocol that results in a high rate of differentiation. To induce osteoblast differentiation, MSC are seeded at a low density (3.1×10^3 cells per cm2) and cultured in media containing β-glycerolphosphate and ascorbic acid for fourteen days. For testing of candidate compounds, MSCs will be differentiated in the presence of the compounds for the duration of the 14-day culture period. Osteoblast differentiation is then assayed via a simple colorometric readout that reflects the levels of cellular alkaline phosphates (ALP), an enzyme present in differentiating osteoblasts but absent in MSCs. ALP levels are then normalized to cell number, which is measured by utilizing the Alamar blue assay. Mineralization can be assessed by staining with xylenol orange. The screen and the 96-well format will allow multiple compounds to be tested at various concentrations. A substantial number of compounds may be identified that are active at a nanomolar concentration.

T1 sequence (Q8BZZ3 whole entry): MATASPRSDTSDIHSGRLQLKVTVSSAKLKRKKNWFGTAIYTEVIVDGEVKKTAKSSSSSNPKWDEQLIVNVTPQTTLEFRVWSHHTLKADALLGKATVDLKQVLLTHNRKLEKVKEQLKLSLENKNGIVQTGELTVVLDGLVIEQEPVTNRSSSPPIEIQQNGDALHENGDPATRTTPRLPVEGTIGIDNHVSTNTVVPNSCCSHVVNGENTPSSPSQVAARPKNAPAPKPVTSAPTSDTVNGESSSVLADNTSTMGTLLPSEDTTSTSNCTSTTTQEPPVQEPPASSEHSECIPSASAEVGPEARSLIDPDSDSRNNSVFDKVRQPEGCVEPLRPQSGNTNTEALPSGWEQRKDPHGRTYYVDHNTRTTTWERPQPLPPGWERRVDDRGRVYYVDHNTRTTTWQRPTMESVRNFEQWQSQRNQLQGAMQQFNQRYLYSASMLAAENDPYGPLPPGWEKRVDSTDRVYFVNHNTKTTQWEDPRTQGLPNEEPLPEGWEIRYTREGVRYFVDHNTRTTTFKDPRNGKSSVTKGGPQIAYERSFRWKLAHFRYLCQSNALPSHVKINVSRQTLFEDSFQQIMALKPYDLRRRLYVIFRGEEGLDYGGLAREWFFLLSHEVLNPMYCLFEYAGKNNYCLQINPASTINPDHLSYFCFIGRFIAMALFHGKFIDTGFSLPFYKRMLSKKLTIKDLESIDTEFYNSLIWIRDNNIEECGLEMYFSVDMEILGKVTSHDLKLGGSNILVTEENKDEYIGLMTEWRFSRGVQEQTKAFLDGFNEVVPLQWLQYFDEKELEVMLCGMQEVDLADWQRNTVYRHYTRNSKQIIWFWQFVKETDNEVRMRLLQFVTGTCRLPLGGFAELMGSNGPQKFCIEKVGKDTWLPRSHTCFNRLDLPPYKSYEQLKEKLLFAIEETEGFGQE

Runx2 transactivation in the OSE2 reporter assay ([1]; C3H10T1/2 cells, 6xOSE2 luciferase reporter): increase Runx2 transactivation
WWP1 inhibition inferred from the OSE2 reporter assay ([1]; concluded from increased Runx2 transactivation): inhibit WWP1
Structure (SMILES): O=c1[nH]cc(CS(=O)(=O)Cc2c[nH]c(=O)[nH]c2=O)c(=O)[nH]1 [5,5′-(sulfonyldimethylene)diuracil]
formation of mineralized nodules [2]: substantially increased formation of mineralized nodules
